# Tested on: 323965-272-R-J2-PDC complex spheroid growth, % test/control
# Assay: Anticancer human tumor 323965-272-R-J2-PDC patient-derived pancreatic carcinoma cell line growth inhibition [Asc]
# Settings: for IC50: curve of first compound; for viability, T/C: stronger effect = lower value
# How it was run: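 Tumor cells were grown as complex spheroids with human endothelial cells (HUVEC) and human mesenchymal stem cells as stroma. Agents were tested alone and in combination, in half-log steps down from the clinical Cmax, or from 10 microM where Cmax was unknown.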
# 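Further: compound exposure lasted 7 days starting three days after spheroid seeding.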
# 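Wherever viability, T/C is given: 100% = DMSO vehicle control wells with viability set relative to vehicle.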
smiles,measurement,setting,value
Cc1nc(N2CCC3(CC2)COC(C)C3N)c(CO)nc1Sc1ccnc(N)c1Cl (stereo unspecified) + CNC(C)C(=O)NC1CN(S(=O)(=O)c2cccc(S(=O)(=O)N3CCC4CCC(C(=O)NC(c5ccccc5)c5ccccc5)N4C(=O)C(NC(=O)C(C)NC)C3)c2)CCC2CCC(C(=O)NC(c3ccccc3)c3ccccc3)N2C1=O,IC50,second compound 0.00316 µM,1000 nM
same,IC50,second compound 0.01 µM,> 3000 nM
same,IC50,second compound 0.0316 µM,> 3000 nM
same,IC50,second compound 0.1 µM,1480 nM
same,IC50,second compound 0.316 µM,1520 nM
same,IC50,second compound 1 µM,967 nM
same,"viability, T/C","second compound 0.00316 µM, first compound 0.00949 µM",109%
same,"viability, T/C","second compound 0.00316 µM, first compound 0.03 µM",84.6%
same,"viability, T/C","second compound 0.00316 µM, first compound 0.0949 µM",71.8%
same,"viability, T/C","second compound 0.00316 µM, first compound 0.3 µM",55.7%
same,"viability, T/C","second compound 0.00316 µM, first compound 0.949 µM",52.4%
same,"viability, T/C","second compound 0.00316 µM, first compound 3 µM",43.9%
same,"viability, T/C","second compound 0.01 µM, first compound 0.00949 µM",99.4%
same,"viability, T/C","second compound 0.01 µM, first compound 0.03 µM",94.3%
same,"viability, T/C","second compound 0.01 µM, first compound 0.0949 µM",66%
same,"viability, T/C","second compound 0.01 µM, first compound 0.3 µM",62%
same,"viability, T/C","second compound 0.01 µM, first compound 0.949 µM",52.6%
same,"viability, T/C","second compound 0.01 µM, first compound 3 µM",47.7%
same,"viability, T/C","second compound 0.0316 µM, first compound 0.00949 µM",110%
same,"viability, T/C","second compound 0.0316 µM, first compound 0.03 µM",97.4%
same,"viability, T/C","second compound 0.0316 µM, first compound 0.0949 µM",80%
same,"viability, T/C","second compound 0.0316 µM, first compound 0.3 µM",58.1%
same,"viability, T/C","second compound 0.0316 µM, first compound 0.949 µM",57.9%
same,"viability, T/C","second compound 0.0316 µM, first compound 3 µM",49%
same,"viability, T/C","second compound 0.1 µM, first compound 0.00949 µM",93.9%
same,"viability, T/C","second compound 0.1 µM, first compound 0.03 µM",96.6%
same,"viability, T/C","second compound 0.1 µM, first compound 0.0949 µM",80.9%
same,"viability, T/C","second compound 0.1 µM, first compound 0.3 µM",65.6%
same,"viability, T/C","second compound 0.1 µM, first compound 0.949 µM",51.2%
same,"viability, T/C","second compound 0.1 µM, first compound 3 µM",47.4%
same,"viability, T/C","second compound 0.316 µM, first compound 0.00949 µM",97.7%
same,"viability, T/C","second compound 0.316 µM, first compound 0.03 µM",85%
same,"viability, T/C","second compound 0.316 µM, first compound 0.0949 µM",86.7%
same,"viability, T/C","second compound 0.316 µM, first compound 0.3 µM",60.5%
same,"viability, T/C","second compound 0.316 µM, first compound 0.949 µM",58.2%
same,"viability, T/C","second compound 0.316 µM, first compound 3 µM",42.3%
same,"viability, T/C","second compound 1 µM, first compound 0.00949 µM",84.8%
same,"viability, T/C","second compound 1 µM, first compound 0.03 µM",80.4%
same,"viability, T/C","second compound 1 µM, first compound 0.0949 µM",71.9%
same,"viability, T/C","second compound 1 µM, first compound 0.3 µM",62%
same,"viability, T/C","second compound 1 µM, first compound 0.949 µM",50.1%
same,"viability, T/C","second compound 1 µM, first compound 3 µM",39.8%
O=C(c1ccc(F)c(F)c1Nc1ccc(I)cc1F)N1CC(O)([C@@H]2CCCCN2)C1 + CCN1C(C(=O)NC23CCC(C(=O)O)(CC2)CC3)C(c2cccc(Cl)c2F)C2(C(=O)Nc3cc(Cl)ccc32)C12CCCCC2,IC50,second compound 0.00949 µM,119 nM
same,IC50,second compound 0.03 µM,150 nM
same,IC50,second compound 0.0949 µM,127 nM
same,IC50,second compound 0.3 µM,134 nM
same,IC50,second compound 0.949 µM,121 nM
same,IC50,second compound 3 µM,81 nM
same,"viability, T/C","second compound 0.00949 µM, first compound 0.00316 µM",110%
same,"viability, T/C","second compound 0.00949 µM, first compound 0.01 µM",88.1%
same,"viability, T/C","second compound 0.00949 µM, first compound 0.0316 µM",75%
same,"viability, T/C","second compound 0.00949 µM, first compound 0.1 µM",52.1%
same,"viability, T/C","second compound 0.00949 µM, first compound 0.316 µM",32.1%
same,"viability, T/C","second compound 0.00949 µM, first compound 1 µM",19.9%
same,"viability, T/C","second compound 0.03 µM, first compound 0.00316 µM",113%
same,"viability, T/C","second compound 0.03 µM, first compound 0.01 µM",92%
same,"viability, T/C","second compound 0.03 µM, first compound 0.0316 µM",86.3%
same,"viability, T/C","second compound 0.03 µM, first compound 0.1 µM",57.3%
same,"viability, T/C","second compound 0.03 µM, first compound 0.316 µM",33.6%
same,"viability, T/C","second compound 0.03 µM, first compound 1 µM",19.4%
same,"viability, T/C","second compound 0.0949 µM, first compound 0.00316 µM",103%
same,"viability, T/C","second compound 0.0949 µM, first compound 0.01 µM",89.5%
same,"viability, T/C","second compound 0.0949 µM, first compound 0.0316 µM",75.2%
same,"viability, T/C","second compound 0.0949 µM, first compound 0.1 µM",55.3%
same,"viability, T/C","second compound 0.0949 µM, first compound 0.316 µM",32.7%
same,"viability, T/C","second compound 0.0949 µM, first compound 1 µM",19.1%
same,"viability, T/C","second compound 0.3 µM, first compound 0.00316 µM",93.7%
same,"viability, T/C","second compound 0.3 µM, first compound 0.01 µM",106%
same,"viability, T/C","second compound 0.3 µM, first compound 0.0316 µM",75.7%
same,"viability, T/C","second compound 0.3 µM, first compound 0.1 µM",54.6%
same,"viability, T/C","second compound 0.3 µM, first compound 0.316 µM",37.1%
same,"viability, T/C","second compound 0.3 µM, first compound 1 µM",19.2%
same,"viability, T/C","second compound 0.949 µM, first compound 0.00316 µM",96.3%
same,"viability, T/C","second compound 0.949 µM, first compound 0.01 µM",95.9%
same,"viability, T/C","second compound 0.949 µM, first compound 0.0316 µM",72.9%
same,"viability, T/C","second compound 0.949 µM, first compound 0.1 µM",54%
same,"viability, T/C","second compound 0.949 µM, first compound 0.316 µM",33.4%
same,"viability, T/C","second compound 0.949 µM, first compound 1 µM",19.7%
same,"viability, T/C","second compound 3 µM, first compound 0.00316 µM",97.6%
same,"viability, T/C","second compound 3 µM, first compound 0.01 µM",85.2%
same,"viability, T/C","second compound 3 µM, first compound 0.0316 µM",65.6%
same,"viability, T/C","second compound 3 µM, first compound 0.1 µM",46.7%
same,"viability, T/C","second compound 3 µM, first compound 0.316 µM",29.6%
same,"viability, T/C","second compound 3 µM, first compound 1 µM",18.3%
COc1c(OCCCN2CCOCC2)ccc2c3n(c(=NC(=O)c4cnc(N)nc4)nc12)CCN3 + CNC(C)C(=O)NC1CN(S(=O)(=O)c2cccc(S(=O)(=O)N3CCC4CCC(C(=O)NC(c5ccccc5)c5ccccc5)N4C(=O)C(NC(=O)C(C)NC)C3)c2)CCC2CCC(C(=O)NC(c3ccccc3)c3ccccc3)N2C1=O,IC50,second compound 0.00316 µM,129 nM
same,IC50,second compound 0.01 µM,99.2 nM
same,IC50,second compound 0.0316 µM,92.6 nM
same,IC50,second compound 0.1 µM,78.4 nM
same,IC50,second compound 0.316 µM,102 nM
same,IC50,second compound 1 µM,70.5 nM
same,"viability, T/C","second compound 0.00316 µM, first compound 0.00316 µM",97.2%
same,"viability, T/C","second compound 0.00316 µM, first compound 0.01 µM",81.3%
same,"viability, T/C","second compound 0.00316 µM, first compound 0.0316 µM",69.5%
same,"viability, T/C","second compound 0.00316 µM, first compound 0.1 µM",54.6%
same,"viability, T/C","second compound 0.00316 µM, first compound 0.316 µM",36.9%
same,"viability, T/C","second compound 0.00316 µM, first compound 1 µM",32.4%
same,"viability, T/C","second compound 0.01 µM, first compound 0.00316 µM",91.6%
same,"viability, T/C","second compound 0.01 µM, first compound 0.01 µM",88.9%
same,"viability, T/C","second compound 0.01 µM, first compound 0.0316 µM",60.1%
same,"viability, T/C","second compound 0.01 µM, first compound 0.1 µM",52.8%
same,"viability, T/C","second compound 0.01 µM, first compound 0.316 µM",36.8%
same,"viability, T/C","second compound 0.01 µM, first compound 1 µM",26%
same,"viability, T/C","second compound 0.0316 µM, first compound 0.00316 µM",94.7%
same,"viability, T/C","second compound 0.0316 µM, first compound 0.01 µM",84.1%
same,"viability, T/C","second compound 0.0316 µM, first compound 0.0316 µM",66.4%
same,"viability, T/C","second compound 0.0316 µM, first compound 0.1 µM",48.6%
same,"viability, T/C","second compound 0.0316 µM, first compound 0.316 µM",37.6%
same,"viability, T/C","second compound 0.0316 µM, first compound 1 µM",31.3%
same,"viability, T/C","second compound 0.1 µM, first compound 0.00316 µM",89.5%
same,"viability, T/C","second compound 0.1 µM, first compound 0.01 µM",80.1%
same,"viability, T/C","second compound 0.1 µM, first compound 0.0316 µM",62.9%
same,"viability, T/C","second compound 0.1 µM, first compound 0.1 µM",49.3%
same,"viability, T/C","second compound 0.1 µM, first compound 0.316 µM",29.9%
same,"viability, T/C","second compound 0.1 µM, first compound 1 µM",29.4%
same,"viability, T/C","second compound 0.316 µM, first compound 0.00316 µM",84.9%
same,"viability, T/C","second compound 0.316 µM, first compound 0.01 µM",85.4%
same,"viability, T/C","second compound 0.316 µM, first compound 0.0316 µM",73.3%
same,"viability, T/C","second compound 0.316 µM, first compound 0.1 µM",49.7%
same,"viability, T/C","second compound 0.316 µM, first compound 0.316 µM",36.8%
same,"viability, T/C","second compound 0.316 µM, first compound 1 µM",30.3%
same,"viability, T/C","second compound 1 µM, first compound 0.00316 µM",85.2%
same,"viability, T/C","second compound 1 µM, first compound 0.01 µM",76.3%
same,"viability, T/C","second compound 1 µM, first compound 0.0316 µM",60.5%
same,"viability, T/C","second compound 1 µM, first compound 0.1 µM",43.4%
same,"viability, T/C","second compound 1 µM, first compound 0.316 µM",35.8%
same,"viability, T/C","second compound 1 µM, first compound 1 µM",24.3%

# Source: PubChem BioAssay AID1963425 (Molecular Pharmacology Branch, DTP, NCI, 2024)
